Columns and labels:
[1] = molecular target: T1, Peroxisome proliferator-activated receptor gamma (Homo sapiens, UniProt P37231)
T1 sequence (P37231 whole entry): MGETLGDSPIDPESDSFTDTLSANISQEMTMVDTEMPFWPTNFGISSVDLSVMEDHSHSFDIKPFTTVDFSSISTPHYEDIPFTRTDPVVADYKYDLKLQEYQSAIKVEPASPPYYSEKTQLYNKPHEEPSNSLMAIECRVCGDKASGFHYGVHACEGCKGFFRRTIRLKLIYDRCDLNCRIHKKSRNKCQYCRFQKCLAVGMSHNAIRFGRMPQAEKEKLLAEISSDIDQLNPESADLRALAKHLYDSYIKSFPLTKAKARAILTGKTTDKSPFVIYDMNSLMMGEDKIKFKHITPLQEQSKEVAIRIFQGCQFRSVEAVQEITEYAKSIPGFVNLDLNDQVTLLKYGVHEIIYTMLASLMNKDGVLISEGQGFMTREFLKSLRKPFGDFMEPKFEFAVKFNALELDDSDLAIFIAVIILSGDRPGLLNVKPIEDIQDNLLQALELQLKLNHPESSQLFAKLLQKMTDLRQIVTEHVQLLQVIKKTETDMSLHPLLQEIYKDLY
Description: Binding affinity was determined by displacement of 20 nM [3H]- thiazolidinedione from 4 nM biotinylated human peroxisome proliferator-activated receptor (PPAR gamma) ligand binding domain

[2] = Tested for transactivation of human PPAR gamma-Gal4 chimera in CV-1 cells; format: functional, cell-based
[3] = molecular target: T1, Peroxisome proliferator-activated receptor gamma; assay: Binding affinity was determined by displacement of 20 nM [3H]- thiazolidinedione from 4 nM biotinylated human Peroxisome proliferator activated receptor gamma (PPAR gamma) ligand binding domain

Row | SMILES | Ki [1] [nM] | Ki [3] [nM] | EC50 [2] [nM]
1 | C=CCC/C=C/C(=O)NCCOc1ccc(CC2SC(=O)NC2=O)cc1 (stereo not drawn) | 6800 | – | –
2 | C=CCCC(=O)N(C)CCOc1ccc(CC2SC(=O)NC2=O)cc1 (stereo not drawn) | 600 | – | –
3 | CCCCCCCCC(=O)N(C)CCOc1ccc(CC2SC(=O)NC2=O)cc1 (stereo not drawn) | 18 | – | 280
4 | CCCCC/C=C/C/C=C\C/C=C\C/C=C\CCCC(=O)O | 1500 | – | 30000
5 | CCCCCCCC(=O)NCCOc1ccc(CC2SC(=O)NC2=O)cc1 (stereo not drawn) | 290 | – | –
6 | CCCCCCCCCC(=O)N(C)CCOc1ccc(CC2SC(=O)NC2=O)cc1 (stereo not drawn) | 20 | – | 290
7 | CC/C=C/C(=O)N(C)CCOc1ccc(CC2SC(=O)NC2=O)cc1 (stereo not drawn) | 1200 | – | –
8 | CCCCCC(=O)NCCOc1ccc(CC2SC(=O)NC2=O)cc1 (stereo not drawn) | – | 10000 | –
9 | C/C=C/CC(=O)N(C)CCOc1ccc(CC2SC(=O)NC2=O)cc1 (stereo not drawn) | 1200 | – | –
10 | C=CCC/C=C/C(=O)N(C)CCOc1ccc(CC2SC(=O)NC2=O)cc1 (stereo not drawn) | 18 | – | 520
11 | CCCCCCCC(=O)N(C)CCOc1ccc(CC2SC(=O)NC2=O)cc1 (stereo not drawn) | 48 | – | 280
12 | CCCCCCCCC(=O)NCCOc1ccc(CC2SC(=O)NC2=O)cc1 (stereo not drawn) | 270 | – | –
13 | CCCCCCC(=O)N(C)CCOc1ccc(CC2SC(=O)NC2=O)cc1 (stereo not drawn) | 61 | – | 810
14 | CCCCC(=O)NCCOc1ccc(CC2SC(=O)NC2=O)cc1 (stereo not drawn) | > 10000 | – | –
15 | CN(CCOc1ccc(CC2SC(=O)NC2=O)cc1)c1ccccn1 (stereo not drawn) [ROSIGLITAZONE] | – | – | 50

The next lines start with results.

Row | Ki [1] [nM] | Ki [3] [nM] | SMILES | EC50 [2] [nM]
16 | > 10000 | – | C/C=C/CC(=O)NCCOc1ccc(CC2SC(=O)NC2=O)cc1 (stereo not drawn) | –
17 | 180 | – | CCCCCC(=O)N(C)CCOc1ccc(CC2SC(=O)NC2=O)cc1 (stereo not drawn) | –
18 | 1100 | – | CCCCC(=O)N(C)CCOc1ccc(CC2SC(=O)NC2=O)cc1 (stereo not drawn) | –
19 | 1400 | – | CCCCCCC(=O)NCCOc1ccc(CC2SC(=O)NC2=O)cc1 (stereo not drawn) | –
20 | > 10000 | – | CC/C=C/C(=O)NCCOc1ccc(CC2SC(=O)NC2=O)cc1 (stereo not drawn) | –
21 | > 10000 | – | C=CCCC(=O)NCCOc1ccc(CC2SC(=O)NC2=O)cc1 (stereo not drawn) | –
22 | 130 | – | CCCCCCCCCC(=O)NCCOc1ccc(CC2SC(=O)NC2=O)cc1 (stereo not drawn) | –

Source: ChEMBL document CHEMBL1130543, “Solid-phase synthesis of hybrid thiazolidinedione-fatty acid PPAR ligands” (Bioorg Med Chem Lett, 1997)
